Type in all cases: biochemical
Holding throughout (conditions): Table 6; enzyme inhibition data (Ki)

One experiment addresses T1, JAK3 (Homo sapiens, UniProt P52333).
T1 sequence (P52333 1-1124): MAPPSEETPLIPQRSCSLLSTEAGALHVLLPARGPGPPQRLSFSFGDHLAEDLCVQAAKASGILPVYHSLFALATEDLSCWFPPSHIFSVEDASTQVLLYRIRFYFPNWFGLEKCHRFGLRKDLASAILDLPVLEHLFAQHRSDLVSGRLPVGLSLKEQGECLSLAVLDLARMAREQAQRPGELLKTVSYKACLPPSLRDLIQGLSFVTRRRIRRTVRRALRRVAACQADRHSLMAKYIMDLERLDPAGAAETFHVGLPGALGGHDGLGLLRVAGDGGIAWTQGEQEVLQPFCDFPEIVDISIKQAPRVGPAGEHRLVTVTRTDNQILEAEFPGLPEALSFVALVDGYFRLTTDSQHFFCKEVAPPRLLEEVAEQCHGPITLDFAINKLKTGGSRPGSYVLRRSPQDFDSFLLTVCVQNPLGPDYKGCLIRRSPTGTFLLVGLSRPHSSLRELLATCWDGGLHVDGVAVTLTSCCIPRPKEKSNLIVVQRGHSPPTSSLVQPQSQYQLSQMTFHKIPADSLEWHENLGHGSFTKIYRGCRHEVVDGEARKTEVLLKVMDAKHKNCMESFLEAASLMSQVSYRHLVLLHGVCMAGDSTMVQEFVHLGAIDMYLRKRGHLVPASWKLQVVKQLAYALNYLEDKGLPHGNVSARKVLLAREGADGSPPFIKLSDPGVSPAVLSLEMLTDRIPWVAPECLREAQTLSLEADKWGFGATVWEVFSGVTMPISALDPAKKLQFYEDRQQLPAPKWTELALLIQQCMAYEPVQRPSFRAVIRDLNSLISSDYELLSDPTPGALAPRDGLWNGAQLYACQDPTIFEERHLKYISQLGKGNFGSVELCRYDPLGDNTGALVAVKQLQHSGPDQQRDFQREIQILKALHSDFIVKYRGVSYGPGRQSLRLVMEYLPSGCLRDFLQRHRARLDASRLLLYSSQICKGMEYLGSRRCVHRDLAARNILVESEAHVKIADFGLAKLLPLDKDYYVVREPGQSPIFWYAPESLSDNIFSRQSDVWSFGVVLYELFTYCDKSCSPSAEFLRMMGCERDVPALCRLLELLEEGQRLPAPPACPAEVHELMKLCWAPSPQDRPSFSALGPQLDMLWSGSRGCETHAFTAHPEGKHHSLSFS
The experiment is described as follows: JAK3 inhibition assay (33P incorporation into poly(Glu)4Tyr). An outline of the steps:
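After TCA quench and filter harvest, scintillation counting of 33P measured phosphorylation of poly(Glu)4Tyr (1 μM) by 1 nM JAK3. The 20-min, 25° C. reaction contained 5 μM ATP (200 μCi/μmole) in pH 7.4 HEPES buffer with 10 mM MgCl2.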

A further experiment addresses JAK2 (Homo sapiens, UniProt O60674). The experiment is described as follows: JAK2 inhibition assay (as Example 3 with JAK-2 enzyme). An outline of the steps: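 In HEPES pH 7.4 buffer with 10 mM MgCl2, 1 mM DTT, 25 mM NaCl and 0.01% BSA, JAK2 enzyme phosphorylated poly(Glu)4Tyr (final 15 μM) using 33P-ATP (final 12 μM) for 20 min at room temperature (25 °C). Reactions stopped with TCA; incorporated 33P measured by scintillation after filtration.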

For another experiment, the target named is ROCK I (Homo sapiens, UniProt Q13464). The experiment is described as follows: ROCK-I inhibition assay (radioactive enzyme assay, MBP substrate). Put shortly: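 Human ROCK at 5 nM phosphorylated 27 μM myelin basic protein with 13 μM [γ-33P]ATP (final) in HEPES pH 7.5, MgCl2, NaCl, DTT and 1.5% DMSO. Reactions ran 2 h at room temperature before TCA quench and filter-plate scintillation counting. After background subtraction, data were fit to give Ki(app).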
ROCK I, sequence (Q13464 whole entry): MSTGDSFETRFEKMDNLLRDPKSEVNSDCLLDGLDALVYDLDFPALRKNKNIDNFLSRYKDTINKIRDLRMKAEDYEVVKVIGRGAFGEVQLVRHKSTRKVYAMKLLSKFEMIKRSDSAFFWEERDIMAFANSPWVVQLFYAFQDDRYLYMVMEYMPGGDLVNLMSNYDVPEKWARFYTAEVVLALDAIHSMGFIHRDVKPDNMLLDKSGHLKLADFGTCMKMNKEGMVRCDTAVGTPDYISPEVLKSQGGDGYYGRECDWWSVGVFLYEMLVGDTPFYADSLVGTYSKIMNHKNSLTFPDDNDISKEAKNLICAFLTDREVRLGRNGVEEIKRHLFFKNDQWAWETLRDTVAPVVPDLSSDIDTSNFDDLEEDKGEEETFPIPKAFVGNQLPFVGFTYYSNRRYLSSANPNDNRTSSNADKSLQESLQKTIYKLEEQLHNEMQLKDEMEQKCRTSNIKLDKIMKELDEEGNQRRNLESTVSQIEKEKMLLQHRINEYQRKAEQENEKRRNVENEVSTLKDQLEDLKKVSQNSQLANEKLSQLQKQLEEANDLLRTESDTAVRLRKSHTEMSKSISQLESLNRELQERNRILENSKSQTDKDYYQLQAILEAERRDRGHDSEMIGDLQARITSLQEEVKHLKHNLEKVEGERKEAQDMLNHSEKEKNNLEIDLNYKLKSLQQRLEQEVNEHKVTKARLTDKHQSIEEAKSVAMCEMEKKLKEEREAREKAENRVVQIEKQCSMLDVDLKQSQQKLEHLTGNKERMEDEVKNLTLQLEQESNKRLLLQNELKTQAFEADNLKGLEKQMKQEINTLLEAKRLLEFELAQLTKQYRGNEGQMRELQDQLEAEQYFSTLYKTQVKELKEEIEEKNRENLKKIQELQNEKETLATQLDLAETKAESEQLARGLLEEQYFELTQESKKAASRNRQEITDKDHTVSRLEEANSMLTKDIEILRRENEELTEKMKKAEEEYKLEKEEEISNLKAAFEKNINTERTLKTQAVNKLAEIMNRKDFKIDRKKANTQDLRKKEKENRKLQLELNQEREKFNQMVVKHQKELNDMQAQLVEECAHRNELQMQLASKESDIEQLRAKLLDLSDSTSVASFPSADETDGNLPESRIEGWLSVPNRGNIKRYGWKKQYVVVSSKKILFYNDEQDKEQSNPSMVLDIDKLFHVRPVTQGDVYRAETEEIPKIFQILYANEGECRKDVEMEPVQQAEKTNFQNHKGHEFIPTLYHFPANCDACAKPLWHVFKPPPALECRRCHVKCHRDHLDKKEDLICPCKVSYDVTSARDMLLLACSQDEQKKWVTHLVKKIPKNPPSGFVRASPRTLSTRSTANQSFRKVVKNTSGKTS

JAK2, sequence (O60674 whole entry): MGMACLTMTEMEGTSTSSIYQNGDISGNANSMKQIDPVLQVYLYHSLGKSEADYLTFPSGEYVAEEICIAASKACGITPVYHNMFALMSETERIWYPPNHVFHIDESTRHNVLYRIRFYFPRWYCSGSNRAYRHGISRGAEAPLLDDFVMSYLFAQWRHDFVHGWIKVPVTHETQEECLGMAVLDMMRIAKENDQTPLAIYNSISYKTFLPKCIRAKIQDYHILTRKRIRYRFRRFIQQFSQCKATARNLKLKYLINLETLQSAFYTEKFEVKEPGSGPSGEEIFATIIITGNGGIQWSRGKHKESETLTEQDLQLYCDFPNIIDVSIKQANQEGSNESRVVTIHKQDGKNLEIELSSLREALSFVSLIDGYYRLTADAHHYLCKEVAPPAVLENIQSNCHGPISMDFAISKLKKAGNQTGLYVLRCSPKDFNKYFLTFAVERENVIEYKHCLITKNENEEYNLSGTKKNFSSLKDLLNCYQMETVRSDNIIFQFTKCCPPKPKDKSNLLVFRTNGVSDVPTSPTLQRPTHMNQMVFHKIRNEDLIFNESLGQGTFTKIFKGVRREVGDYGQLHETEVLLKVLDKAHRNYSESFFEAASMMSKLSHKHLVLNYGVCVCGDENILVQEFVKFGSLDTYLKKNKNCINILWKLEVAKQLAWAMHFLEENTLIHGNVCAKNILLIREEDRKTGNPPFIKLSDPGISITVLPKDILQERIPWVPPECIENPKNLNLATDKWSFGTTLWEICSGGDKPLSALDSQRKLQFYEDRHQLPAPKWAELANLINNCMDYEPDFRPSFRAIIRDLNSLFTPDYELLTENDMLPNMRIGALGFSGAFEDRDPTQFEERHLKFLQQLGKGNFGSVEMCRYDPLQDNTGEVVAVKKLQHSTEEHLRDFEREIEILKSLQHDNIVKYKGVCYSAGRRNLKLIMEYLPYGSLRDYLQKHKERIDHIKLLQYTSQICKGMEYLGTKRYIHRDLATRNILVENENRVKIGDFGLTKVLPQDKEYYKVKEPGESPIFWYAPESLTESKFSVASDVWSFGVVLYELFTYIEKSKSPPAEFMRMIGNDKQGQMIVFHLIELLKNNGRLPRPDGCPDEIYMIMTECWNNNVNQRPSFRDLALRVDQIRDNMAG

On to `O=S(=O)(C1CC1)N1CC[C@@H](Nc2c(Cl)cnc3[nH]ccc23)C1` [compound 183], for which the Ki (as a rule, the dissociation constant of the complex between target and ligand, obtained from inhibition or displacement) on JAK3 was under 500 nM; on JAK2, under 500 nM; at ROCK I, over 4 µM.
As for `CS(=O)(=O)N1CC[C@@H](Nc2c(Cl)cnc3[nH]ccc23)C1` [compound 184], the results for the Ki on JAK3, on JAK2 and on ROCK I were under 500 nM, under 500 nM and 0.5 to 5 µM, respectively.
Take `CS(=O)(=O)N1CC[C@H](Nc2c(Cl)cnc3[nH]ccc23)C1` [compound 185]: the Ki at JAK3 is under 500 nM; on JAK2, under 500 nM; on ROCK I, over 4 µM.
As for `O=C(CC(F)(F)F)N1CCCC(Nc2c(Cl)cnc3[nH]ccc23)C1` (stereo not drawn) [compound 186], the values for the Ki on JAK3, on JAK2 and on ROCK I were under 500 nM, under 500 nM and 0.5 to 5 µM, respectively.
Regarding `O=C(CC(F)(F)F)N1CC[C@H](Nc2c(Cl)cnc3[nH]ccc23)C1` [compound 187], the results for the Ki at JAK3, at JAK2 and at ROCK I were under 500 nM, under 500 nM and 0.5 to 5 µM, respectively.
Take `N#CCC(=O)N1CCCC(Nc2c(Cl)cnc3[nH]ccc23)C1` (stereo not drawn) [compound 188]: the Ki at JAK3 is under 500 nM; on JAK2, under 500 nM; on ROCK I it was 0.5 to 5 µM.
Take `O=C(CC(F)(F)F)N1CC[C@@H](Nc2c(Cl)cnc3[nH]ccc23)C1` [compound 189]: the Ki on JAK3 was 500 to 5000 nM; at JAK2, under 500 nM; at ROCK I it was over 4 µM.
The like results for `N#CCC(=O)N1CC[C@@H](Nc2c(Cl)cnc3[nH]ccc23)C1` [compound 190] were, in that order, under 500 nM, under 500 nM and 0.5 to 5 µM.
The like results for `N#CCC(=O)N1CC[C@H](Nc2c(Cl)cnc3[nH]ccc23)C1` [compound 191] were, in that order, under 500 nM, under 500 nM and over 4 µM.
Taken in the same sequence, the figures for `O=C(CNc1nc(-c2ccnc3[nH]ccc23)ncc1F)NCC(F)(F)F` [compound 192] were under 500 nM, 500 to 5000 nM and over 4 µM.
In the case of `O=C(CCNc1nc(-c2ccnc3[nH]ccc23)ncc1F)NCC(F)(F)F` [compound 193], the Ki on JAK3 is 500 to 5000 nM; at JAK2 it was 500 to 5000 nM; on ROCK I, over 4 µM.
For the molecule `CC(C)(C)C(=O)Nc1ncccc1-c1ccnc2[nH]ccc12` [compound 194], the Ki on JAK3 was over 5000 nM; on JAK2, over 5000 nM; at ROCK I, over 4 µM.
Turning to `Nc1ncccc1-c1ccnc2[nH]ccc12` [compound 195], the results for the Ki at JAK3, at JAK2 and on ROCK I were over 5000 nM, over 5000 nM and over 4 µM, respectively.
As for `O=C(CNc1nc(-c2ccnc3[nH]ccc23)nc2ccccc12)NCC(F)(F)F` [compound 196], the Ki is 500 to 5000 nM on JAK3, 500 to 5000 nM on JAK2 and over 4 µM on ROCK I.
`O=C(CCNc1nc(-c2ccnc3[nH]ccc23)nc2ccccc12)NCC(F)(F)F` [compound 197]: the Ki on JAK3 is 500 to 5000 nM; on JAK2, 500 to 5000 nM; on ROCK I, over 4 µM.
As for `O=C(NCC(F)(F)F)[C@H]1CCCN1c1nc(-c2ccnc3[nH]ccc23)ncc1F` [compound 198], the Ki was 500 to 5000 nM at JAK3, 500 to 5000 nM at JAK2 and over 4 µM at ROCK I.
In the case of `O=C(NCC(F)(F)F)[C@@H]1CCCN1c1nc(-c2ccnc3[nH]ccc23)ncc1F` [compound 199], the Ki is under 500 nM at JAK3, 500 to 5000 nM at JAK2 and over 4 µM on ROCK I.
Taken in the same sequence, the figures for `C[C@@H](Nc1nc(-c2ccnc3[nH]ccc23)nc2ccccc12)C(=O)NCC(F)(F)F` [compound 200] were 500 to 5000 nM, 500 to 5000 nM and over 4 µM.
Taken in the same sequence, the figures for `C[C@@H](Nc1nc(-c2ccnc3[nH]ccc23)ncc1F)C(=O)NCC(F)(F)F` [compound 201] were under 500 nM, 500 to 5000 nM and over 4 µM.
